Reference: patent publication US20120192315A1, “RESISTANCE GENES AND PROTEINS ACTIVE AGAINST FUSARIUM ROOT ROTS, CYST NEMATODES AND SOYBEAN SUDDEN DEATH SYNDROME AND METHODS EMPLOYING SAME” (Southern Illinois University Carbondale, priority 2011, published 2012)
“Also recorded” adds a separate entry of the source. Like-named read-outs stand apart in the source and are kept apart here. Where no end group is shown, it is not given here.

How the values were obtained:
[1] = target: GmRLK18-1 LRR domain (RHG1); experiment: Binding of CLE like peptides to purified LRR domain of the RLK at rhg1/Rfs2, titration by luminescence spectrometry; set-up: species or system Glycine max
Source text: (§1) The full length rhg1/Rfs2 or Rhg4 cDNA from the SCN resistant cultivar, ‘Forrest’ (Bruker et al. 2005), was sub-cloned in pGEM-T vector. For the rhg1/Rfs2 LRR DNA was PCR amplified using internal primers. Primers were designed to copy and amplify a 1032 bp region encompassing the 10 LRRs of rhg1. The sense primer 141-485F: 5′-[…]-3′ contained an eight base linker followed by an NcoI restriction site (in bold) to allow in-frame cloning into the expression vector pET30A (+). A factor Xa site (underlined) was incorporated in the sense primer in order to cleave the fusion protein. The anti-sense primer 141-485R: 5′-[…]-3′ contained a six base linker followed by an XhoI restriction site (in bold). The stop codon (underlined) was added to the primer sequence to terminate the RHG1 translation. The amplicon obtained by PCR was isolated by agarose gel electrophoresis and purified using gel elution. The amplified fragment was subcloned into pGEMT vector by ligation of the 3′T vector overhang with the 3′A added by Taq polymerase during template amplification. The complementarity between the vector 3′T overhangs and the PCR product 3′A overhangs allowed for direct ligation of PCR products into the vector. pGEMT vector was transformed into DH5a cells, positive colonies were selected and grown overnight in 5 ml of 2-fold YT medium. The recombinant plasmid DNA was purified using the Qiagen mini-prep kit.
About […] of the LRR sub-clone plasmid DNA was digested with NcoI and XhoI. Purified insert was ligated overnight at 16° C. using T4 DNA ligase into a XhoI/NcoI predigested pET30a (+) vector. The ratio of insert DNA to plasmid DNA was 3:1. The construct contained the hexa-his inframe with the Factor Xa vector site and 5′ end of the insert. The recombinant plasmid was transformed into DH5a cells. Positive colonies were selected on 2-fold YT plates supplemented with 50 μg/ml kanamycin and screened by digestion of mini-prep plasmid DNA with NcoI and XhoI followed by agarose gel electrophoresis. The nature of the inserts were also verified by DNA sequence analysis using the ABI 377 DNA sequencer (Foster City, Calif.).
A Quikchange site directed mutagenesis kit (Stratagene) was used for RLSH generation. Both sense and anti-sense primers were designed to loop out the 114 bp nucleotide linker region between the hexa-his tag and the first codon of RLLH. The forward primer DMF1: 5′-[…]-3′ and reverse primer DMR1: 5′-[…]-3′ were complementary in sequence and annealed to opposite stands of DNA. Amplification of template was performed with Pfu-Turbo DNA polymerase. Following amplification, the parent DNA (methylated and hemi-methylated) was digested with DpnI endonuclease (target sequence: 5′-Gm6ATC-3′). The amplified vector DNA containing the desired deletion was transformed into XL1-Blue competent cells and the cells were grown overnight in 2XYT supplemented with 50 μg/ml tetracycline and 50 μg/ml kanamycin. Colonies were picked, grown overnight, DNA purified and inserts identified by digestion of plasmid DNA with NdeI and XhoI followed by 2% (w/v) agarose gel electrophoresis. DNA was subsequently sequenced to verify looping out of the RLLH linker region. DNA from positive clones was transformed into BL21 (DE3-RIL) competent cells.
BL21-CodonPlus™-RIL series of strains contain extra copies of the E. coli argU, ileY, and leuW tRNA genes. The modification allowed for high expression of proteins that were difficult to express in conventional E. coli hosts due to the codon usage bias of the gene of interest. RHG1 protein contained 18 codons rarely used in E. coli in the LRR alone (Table 3.1). The 5 ml of LB overnight culture containing Rhg1/Rfs2 LRR or Rhg4 LRR was transferred to 1 L of M9 minimal media supplemented with ammonium sulfate and kanamycin. The cells were grown at 37° C. to an O.D of 1.0. The protein was induced with 0.4 mM IPTG and incubated at 16° C. in an orbital shaker for 18-20 h. […]

[2] = target: GmRLK8-1 LRR domain (RHG4); experiment: Binding of CLE like peptides to purified LRR domain of the RLK at Rhg4, titration by luminescence spectrometry; set-up: species or system Glycine max
Source text: as §1
BL21-CodonPlus™-RIL series of strains contain extra copies of the E. coli argU, ileY, and leuW tRNA genes. The modification allowed for high expression of proteins that were difficult to express in conventional E. coli hosts due to the codon usage bias of the gene of interest. RHG1 protein contained 18 codons rarely used in E. coli in the LRR alone (Table 3.1). The 5 ml of LB overnight culture containing Rhg1/Rfs2 LRR or Rhg4 LRR was transferred to 1 L of M9 minimal media supplemented with ammonium sulfate and kanamycin. The cells were grown at 37° C. to an O.D of 1.0. The protein was induced with 0.4 mM IPTG and incubated at 16° C. in an orbital shaker for 18-20 h.
Proteins were solubilized from IBs, purified and refolded by the method described by Afzal and Lightfoot 2007, Protein Expression and Purification 53: 346-355. They were produced as in Example 9 and used for Far Western identification of interacting root proteins (FIGS. 4 & 5) and for identification of preferred ligands among small peptides found in root phloem (Table 4).

GmRLK18-1 LRR domain = experiment: Far-Western analysis of soybean root proteins probed with the LRR domain of GmRLK18-1; format: binding, Glycine max; settings: 2D gel of SCN inoculated root proteins of NIL 34-23; MS identification
[3] = Exogenous peptide treatment of plants; format: in vivo; settings: phenotypes: transient wilting, increased plant vigor, increased disease resistance
[4] = target: T1, purified GmRLK18-1 LRR domain (6x his-RHG1) (Glycine max); experiment: fluorescence (luminescence spectrometry) titration of peptide with purified LRR domain, in vitro
T1 chain: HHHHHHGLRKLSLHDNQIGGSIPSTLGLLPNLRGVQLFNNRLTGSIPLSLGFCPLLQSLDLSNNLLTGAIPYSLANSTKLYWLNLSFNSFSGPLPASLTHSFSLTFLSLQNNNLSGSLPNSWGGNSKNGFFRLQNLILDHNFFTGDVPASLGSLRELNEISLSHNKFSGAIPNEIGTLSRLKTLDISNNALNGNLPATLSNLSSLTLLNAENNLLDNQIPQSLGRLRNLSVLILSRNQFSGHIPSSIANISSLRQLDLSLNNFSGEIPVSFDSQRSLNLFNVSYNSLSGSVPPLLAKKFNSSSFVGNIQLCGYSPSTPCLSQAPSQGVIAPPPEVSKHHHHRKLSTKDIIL

[5] = target: GmRLK8-1 LRR domain (from the RLK protein at Rhg4) (Glycine max); experiment: as above
[6] = target: T1, purified GmRLK18-1 LRR domain (6x …); experiment: fluorescence (luminescence spectrometry) titration of peptide with purified LRR domain, in vitro; apparent Kd for dimerization
[7] = purified LRR domain, binding constants calculated from titration experiments, read-out: Kd (nM) RHG1
[8] = purified LRR domain, binding constants calculated from titration experiments, read-out: Kd (nM) RHG4

Molecule	Kd [1, 7] [nM]	Kd [2, 8] [nM]	Kd [4] [nM]	Kd [5] [nM]	also measured
RAELDFNYMSKRRVPNGPDPIHNRRAGNSGR [36L]	49	51	–	–	–
cyclophilin: soybean cyclophilin, GenBank gi 17981611, binds the purified LRR domain	–	–	–	–	binding to the GmRLK18-1 LRR domain in Far-Western (GmRLK18-1 LRR domain): bound strongly; also recorded: interacting partner
RLAPEGPDPHHN [compound 30, RLAPEGPDPHHN]	44	84	–	–	binding by the GmRLK18-1 derived LRR peptide, in words ([1]; assays in vitro): bound weakly; binding by the GmRLK8-1 LRR domain protein, in words ([2]; assays in vitro): bound very weakly
AHEVPSGPNPISNR [T, AHEVPSGPNPISNR]	–	204	–	–	Kd ([1]; assays in vitro, read-out: binding constants, GmRLK18-1-LRR): 20 nM; binding by the GmRLK8-1 LRR domain protein, in words ([2]; assays in vitro): bound weakly; effect as exogenous treatment [3]: effective
CTLSRLKTLDISNNALNGNLPATLSNLS [L]	–	135	–	–	Kd ([1]; estimated from the peptide with one diverged LRR motif, read-out: apparent Kd for dimerization): 36 nM
RTVPSGPDPLHH [compound 3, RTVPSGPDPLHH]	29	50	–	–	binding by the GmRLK18-1 derived LRR peptide, in words ([1]; assays in vitro): strong binding constant
KGLGLHEELRTVPSGPDPLHHHVNPPRQPR [3L]	65	142	–	–	–
DLPLAPADRLAPGGPDPQHNVRAPPRKP [2L]	142	338	–	–	–
KRLSPSGPDPHHH [N, KRLSPSGPDPHHH]	30	–	–	–	binding by the GmRLK18-1 derived LRR peptide, in words ([1]; assays in vitro): strong binding constant; Kd ([2]; assays in vitro, read-out: affinity, GmRLK8-1 LRR domain): 78 nM; effect as exogenous treatment [3]: effective
RLAPGGPDPQHN [compound 2, RLAPGGPDPQHN]	45	96	–	–	binding by the GmRLK8-1 LRR domain protein, in words ([2]; assays in vitro): bound very weakly
SKRRVPNGPDPIHNR [compound 36, SKRRVPNGPDPIHNR]	14	52	–	–	–
RLAPGGPDPQHN (modifications not checked) [peptide 2 (GmNIC1, LjCLE-R2 and LjCLE-R1)]	–	–	45	96	–
SKRRVPNGPDPIHNR (modifications not checked) [peptide 36 (GmCLE34, AtCLE36, MtCLE36)]	–	–	14	52	–
RAELDFNYMSKRRVPNGPDPIHNRRAGNSGR (modifications not checked) [peptide 36L (GmCLE34, AtCLE36, MtCLE36)]	–	–	49	51	–
RTVPSGPDPLHH (modifications not checked) [peptide 3 (GmCLE3, AtCLE3, AtClv3 unmodified)]	–	–	29	50	–
KGLGLHEELRTVPSGPDPLHHHVNPPRQPR (modifications not checked) [peptide 3L (GmCLE3, AtCLE3, AtClv3 unmodified)]	–	–	65	142	–
KRLSPSGPDPHHH (modifications not checked) [peptide N (HgCLV3)]	–	–	30	78	–
CTLSRLKTLDISNNALNGNLPATLSNLS (modifications not checked) [peptide L (GmLRR, GmRLK18-1)]	–	–	–	135	Kd [6]: 36 nM
DLPLAPADRLAPGGPDPQHNVRAPPRKP (modifications not checked) [peptide 2L (GmNIC1, LjCLE-R2 and LjCLE-R1)]	–	–	142	338	–
RLAPEGPDPHHN (modifications not checked) [peptide 30 (GmCLE30, GmRIC1)]	–	–	44	84	–
AHEVPSGPNPISNR (modifications not checked) [peptide T (GmTDIF, ZeTDIF)]	–	–	20	204	–
